Reference: patent publication US8530489B2 (Vertex Pharmaceuticals Incorporated, priority 2006, dated 2013)

Each compound was assayed against PLK1 (Homo sapiens, UniProt P53350) (assay: PLK1 Inhibition Assay I (radioactive-phosphate incorporation)). Conditions: Ki(app); PLK1 Inhibition Assay I or II (table does not say which).
Assay type: biochemical
How it was run: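 Ki(app) values came from non-linear regression of initial rates after background subtraction, with phosphopeptide measured by phosphocellulose filter binding and scintillation counting. PLK1 at 2 nM was preincubated with compound (typically from 10 μM, 2-fold dilutions) for 10 min, then run 240 min at 25° C with 350 μM [γ-33P]ATP and 450 μM peptide substrate in HEPES pH 7.5 buffer.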

Chain of PLK1 (P53350 whole entry): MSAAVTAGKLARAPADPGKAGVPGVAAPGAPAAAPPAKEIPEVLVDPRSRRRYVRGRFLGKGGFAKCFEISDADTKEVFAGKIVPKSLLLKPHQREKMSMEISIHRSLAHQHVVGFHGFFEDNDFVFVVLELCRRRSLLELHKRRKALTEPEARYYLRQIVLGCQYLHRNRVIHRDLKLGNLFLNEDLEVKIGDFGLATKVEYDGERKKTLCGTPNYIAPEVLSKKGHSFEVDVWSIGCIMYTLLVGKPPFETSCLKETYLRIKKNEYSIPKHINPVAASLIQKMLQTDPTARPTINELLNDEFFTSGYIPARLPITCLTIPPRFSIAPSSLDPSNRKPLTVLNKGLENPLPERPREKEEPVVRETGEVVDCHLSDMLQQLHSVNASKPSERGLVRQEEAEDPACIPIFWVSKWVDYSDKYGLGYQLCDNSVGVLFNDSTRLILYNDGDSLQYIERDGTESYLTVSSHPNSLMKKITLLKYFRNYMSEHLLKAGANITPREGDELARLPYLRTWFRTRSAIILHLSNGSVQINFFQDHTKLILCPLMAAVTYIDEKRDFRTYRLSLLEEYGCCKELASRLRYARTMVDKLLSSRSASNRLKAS

Compound | Ki [nM]
CCNc1ncc(C#N)c(-c2c[nH]c3ncc(C(F)(F)F)cc23)n1 [Compound I-66, 2-(ethylamino)-4-(5-(trifluoromethyl)-1H-pyrrolo[2,3-b]pyridin-3-yl)pyrimidine-5-carbonitrile] | > 40
N#Cc1cnc(Sc2ccccc2Cl)nc1-c1c[nH]c2ncc(C(F)(F)F)cc12 [II-5, 2-(2-chlorophenylthio)-4-(5-(trifluoromethyl)-1H-pyrrolo[2,3-b]pyridin-3-yl)pyrimidine-5-carbonitrile] | > 40
N#Cc1cnc(NCc2ccc3c(c2)OCO3)nc1-c1c[nH]c2ncc(C(F)(F)F)cc12 [Compound I-56] | 3 to 40
N#Cc1cnc(NCC2CCN(Cc3ccccc3)CC2)nc1-c1c[nH]c2ncc(C(F)(F)F)cc12 [Compound I-89, 2-((1-benzylpiperidin-4-yl)methylamino)-4-(5-(trifluoromethyl)-1H-pyrrolo[2,3-b]pyridin-3-yl)pyrimidine-5-carbonitrile] | > 40
CNC(=O)C(C)(C)Nc1ncc(C#N)c(-c2c[nH]c3ncc(Cl)cc23)n1 [IA-8, 2-(4-(5-chloro-1H-pyrrolo[2,3-b]pyridin-3-yl)-5-cyanopyrimidin-2-ylamino)-N,2-dimethylpropanamide] | > 40
N#Cc1cnc(NC2CC2c2ccccc2)nc1-c1c[nH]c2ncc(C(F)(F)F)cc12 (centres unmarked) [Compound I-27, 2-(2-phenylcyclopropylamino)-4-(5-(trifluoromethyl)-1H-pyrrolo[2,3-b]pyridin-3-yl)pyrimidine-5-carbonitrile] | > 40
N#Cc1cnc(NCCN2CCOCC2)nc1-c1c[nH]c2ncc(C(F)(F)F)cc12 [Compound I-69, 2-(2-morpholinoethylamino)-4-(5-(trifluoromethyl)-1H-pyrrolo[2,3-b]pyridin-3-yl)pyrimidine-5-carbonitrile] | > 40
CC(Nc1ncc(C#N)c(-c2c[nH]c3ncc(C(F)(F)F)cc23)n1)c1ccc(N2CCC(O)(C(C)C)CC2)nc1 (centres unmarked) [Compound I-198, 2-(1-(6-(4-hydroxy-4-isopropylpiperidin-1-yl)pyridin-3-yl)ethylamino)-4-(5-(trifluoromethyl)-1H-pyrrolo[2,3-b]pyridin-3-yl)pyrimidine-5-carbonitrile] | 3 to 40
CC(C)(Nc1ncc(C#N)c(-c2c[nH]c3ncc(C(F)(F)F)cc23)n1)C(=O)O [IA-9, 2-(5-cyano-4-(5-(trifluoromethyl)-1H-pyrrolo[2,3-b]pyridin-3-yl)pyrimidin-2-ylamino)-2-methylpropanoic acid] | > 40
N#Cc1cnc(Sc2ccc(Cl)cc2)nc1-c1c[nH]c2ncc(C(F)(F)F)cc12 [II-2, 2-(4-chlorophenylthio)-4-(5-(trifluoromethyl)-1H-pyrrolo[2,3-b]pyridin-3-yl)pyrimidine-5-carbonitrile] | > 40
N#Cc1cnc(NC[C@H]2CC[C@@H](O)C2)nc1-c1c[nH]c2ncc(C(F)(F)F)cc12 [Compound I-81, 2-(((1S,3R)-3-hydroxycyclopentyl)methylamino)-4-(5-(trifluoromethyl)-1H-pyrrolo[2,3-b]pyridin-3-yl)pyrimidine-5-carbonitrile] | 3 to 40

Further lines, results first:

Ki [nM] | Compound
3 to 40 | C[C@@H](Nc1ncc(C#N)c(-c2c[nH]c3ncc(C(F)(F)F)cc23)n1)c1ccc(N2CC[C@H](N3CCCC3)C2)nc1 [Compound I-288, 2-((R)-1-(6-((S)-1,3′-bipyrrolidin-1′-yl)pyridin-3-yl)ethylamino)-4-(5-(trifluoromethyl)-1H-pyrrolo[2,3-b]pyridin-3-yl)pyrimidine-5-carbonitrile]
< 3 | COc1ccc(C(C)Nc2ncc(C#N)c(-c3c[nH]c4ncc(C(F)(F)F)cc34)n2)cc1Cl (centres unmarked) [Compound I-84, 2-(1-(3-chloro-4-methoxyphenyl)ethylamino)-4-(5-(trifluoromethyl)-1H-pyrrolo[2,3-b]pyridin-3-yl)pyrimidine-5-carbonitrile]
< 3 | COCCC(=O)N1CCC(C(C)Nc2ncc(C#N)c(-c3c[nH]c4ncc(C(F)(F)F)cc34)n2)CC1 (centres unmarked) [Compound I-184, 2-(1-(1-(3-methoxypropanoyl)piperidin-4-yl)ethylamino)-4-(5-(trifluoromethyl)-1H-pyrrolo[2,3-b]pyridin-3-yl)pyrimidine-5-carbonitrile]
3 to 40 | CCC(O)CNc1ncc(C#N)c(-c2c[nH]c3ncc(C(F)(F)F)cc23)n1 (centres unmarked) [Compound I-96, 2-(2-hydroxybutylamino)-4-(5-(trifluoromethyl)-1H-pyrrolo[2,3-b]pyridin-3-yl)pyrimidine-5-carbonitrile]
3 to 40 | C[C@@H](Nc1ncc(C#N)c(-c2c[nH]c3ncc(C(F)(F)F)cc23)n1)c1ccc2ccccc2c1 [Compound I-31, 2-((R)-1-(naphthalen-2-yl)ethylamino)-4-(5-(trifluoromethyl)-1H-pyrrolo[2,3-b]pyridin-3-yl)pyrimidine-5-carbonitrile]
< 3 | CC(Nc1ncc(C#N)c(-c2c[nH]c3ncc(C(F)(F)F)cc23)n1)c1ccc(N2CCOCC2)cc1 (centres unmarked) [Compound I-125, 2-(1-(4-morpholinophenyl)ethylamino)-4-(5-(trifluoromethyl)-1H-pyrrolo[2,3-b]pyridin-3-yl)pyrimidine-5-carbonitrile]
3 to 40 | C[C@@H](Nc1ncc(C#N)c(-c2c[nH]c3ncc(C(F)(F)F)cc23)n1)C1CCN(C(=O)[C@H](N)c2ccccc2)CC1 [Compound I-248, 2-((R)-1-(1-((R)-2-amino-2-phenylacetyl)piperidin-4-yl)ethylamino)-4-(5-(trifluoromethyl)-1H-pyrrolo[2,3-b]pyridin-3-yl)pyrimidine-5-carbonitrile]
< 3 | COC(=O)N1CCC(C(C)Nc2ncc(C#N)c(-c3c[nH]c4ncc(C(F)(F)F)cc34)n2)CC1 (centres unmarked) [Compound I-152, methyl 4-(1-(5-cyano-4-(5-(trifluoromethyl)-1H-pyrrolo[2,3-b]pyridin-3-yl)pyrimidin-2-ylamino)ethyl)piperidine-1-carboxylate]
< 3 | C[C@@H](O)C(=O)N[C@H]1CC[C@H]([C@@H](C)Nc2ncc(C#N)c(-c3c[nH]c4ncc(C(F)(F)F)cc34)n2)CC1 [Compound I-265, Trans-(2R)—N-(4-((1R)-1-(5-cyano-4-(5-(trifluoromethyl)-1H-pyrrolo[2,3-b]pyridin-3-yl)pyrimidin-2-ylamino)ethyl)cyclohexyl)-2-hydroxypropanamide]
< 3 | CCN1CCN(c2ccc([C@@H](C)Nc3ncc(C#N)c(-c4c[nH]c5ncc(C(F)(F)F)cc45)n3)cn2)CC1 [Compound I-285, 2-((R)-1-(6-(4-ethylpiperazin-1-yl)pyridin-3-yl)ethylamino)-4-(5-(trifluoromethyl)-1H-pyrrolo[2,3-b]pyridin-3-yl)pyrimidine-5-carbonitrile]
< 3 | C[C@H](Nc1ncc(C#N)c(-c2c[nH]c3ncc(C(F)(F)F)cc23)n1)c1ccc(O[C@H]2CCN(C)C2)cc1 [Compound I-161, 2-((S)-1-(4-((S)-1-methylpyrrolidin-3-yloxy)phenyl)ethylamino)-4-(5-(trifluoromethyl)-1H-pyrrolo[2,3-b]pyridin-3-yl)pyrimidine-5-carbonitrile]
< 3 | CNC(=O)N1CCC(C(C)Nc2ncc(C#N)c(-c3c[nH]c4ncc(C(F)(F)F)cc34)n2)CC1 (centres unmarked) [Compound I-160, 4-(1-(5-cyano-4-(5-(trifluoromethyl)-1H-pyrrolo[2,3-b]pyridin-3-yl)pyrimidin-2-ylamino)ethyl)-N-methylpiperidine-1-carboxamide]
